IC50 data for three compounds are collected here from patent publication US7713972B2, “Imidazotriazinone derivatives as PDE 7 (phosphodiesterase 7) inhibitors” (Asubio Pharma Co., Ltd., priority 2003, dated 2010).

pIC50: −log10 of the molar value.

For this experiment, the target named is T1, PDE 7 (phosphodiesterase VII) (Homo sapiens, UniProt Q13946).
T1 construct: endogenous in cells; host or cells: MOLT-4 (ATCC CRL-1582), soluble fraction, HiTrap Q column, fraction eluting at about 350 mM NaCl
T1 sequence (Q13946 whole entry): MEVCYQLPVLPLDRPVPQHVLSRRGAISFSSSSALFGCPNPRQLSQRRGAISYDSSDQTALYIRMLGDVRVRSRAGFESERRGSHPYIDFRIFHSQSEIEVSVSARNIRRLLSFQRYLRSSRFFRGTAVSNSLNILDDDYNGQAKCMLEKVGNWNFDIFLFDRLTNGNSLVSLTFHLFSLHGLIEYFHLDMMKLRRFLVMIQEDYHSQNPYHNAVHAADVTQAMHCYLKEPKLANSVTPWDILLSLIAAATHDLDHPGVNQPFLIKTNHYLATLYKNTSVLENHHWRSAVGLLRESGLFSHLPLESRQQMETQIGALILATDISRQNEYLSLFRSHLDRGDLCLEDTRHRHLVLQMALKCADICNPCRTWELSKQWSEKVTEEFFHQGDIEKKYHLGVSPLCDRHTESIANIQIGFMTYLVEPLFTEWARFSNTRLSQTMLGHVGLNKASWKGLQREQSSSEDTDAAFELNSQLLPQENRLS
The experiment in a line: PDE 7 inhibiting effect (Biological Test 1; 3H-cAMP hydrolysis by PDE 7 active fraction from MOLT-4 cells). The format is biochemical. The note with it: PDE 7 fraction from MOLT-4 cells; 0.064 μM cAMP, 10 μM rolipram present, 2 hours at 25° C.; read-out: PDE 7 inhibiting activities, IC50. On the procedure: The PDE 7 (phosphodiesterase VII) inhibiting effect of the compounds of the present invention was performed by the following method, which was modified assay method described in Biochemical. Pharmacol. 48(6), 1219-1223 (1994).
(1) The active fraction of PDE 7 (phosphodiesterase VII) was obtained. That is, MOLT-4 (obtainable from ATCC as ATCC No. CRL-1582), which was cell line of human acute lymphoblastic lymphoma T cells, was incubated in RPMI1640 culture medium containing 10% fetal bovine serum to obtain 5×10^8 MOLT-4 cells. The cells were collected by centrifugation and suspended with 10 mL of buffer solution A [25 mM of tris-HCl, 5 mM of 2-mercaptoethnol, 2 mM of benzamidine, 2 mM of EDTA, 0.1 mM of 4-(2-aminoethyl) benzensulfonyl hydrochloride; pH 7.5], then homogenized by Polytron® homogenizer. The homogenate were centrifuged under 25,000×G for 10 minutes at 4° C. The supernatant was separated and thus obtained supernatant was further centrifuged under 100,000×G for 60 minutes at 4° C., and then filtrated with 0.2 μm filter to obtain the soluble fraction. (2) The obtained soluble fraction was filled in equilibrium HiTrap Q column (5 mL×2) with buffer solution A, and phosphodiesterase fractions were eluted by 300 mL of buffer solution A with linear gradient from 0 to 0.8 M NaCl concentration. 5 ml each of 60 eluents were collected, and each eluents were examined for cyclic AMP metabolic activities of phosphodiesterase. The fraction eluting with about 350 mM NaCl concentration parts, where metabolic activities were not inactivated by 10 μM of rolipram (selective inhibitor for phosphodiesterase IV) and 10 μM of milrinone (selective inhibitor for phosphodiesterase III), were collected as storage solution for using to test PDE 7 inhibiting effect. […] Further, SEPHADEX®-QAE (cross-linked dextran gel) was added to the obtained supernatant and the mixture was leaved at rest for 5 minutes, then, the radioactivity of the solution was measured. […]

Take `COc1ccccc1-c1nc2c(C)nc(C3CCCCC3)n2c(=O)[nH]1` [Compound 8, 6-Cyclohexyl-2-(2-methoxyphenyl)-8-methylimidazo[1,5-a][1,3,5]-triazin-4(3H)-one]: the pIC50 was 6.47.

As for `COc1cc(N2CCN(C)CC2)ccc1-c1nc2c(C)nc(C3CCCCC3)n2c(=O)[nH]1` [Compound 11, 6-Cyclohexyl-2-[2-methoxy-4-(4-methyl-1-piperadinyl)phenyl]-8-methylimidazo[1,5-a][1,3,5]triazin-4(3H)-one], the negative logarithm of the IC50 (pIC50) was 7.26.

Consider `COc1ccccc1-c1nn2c(C)nc(C3CCCCC3)c2c(=O)[nH]1` [Compound 12, 5-Cyclohexyl-2-(2-methoxyphenyl)-7-methylimidazo-[5,1-f][1,2,4]triazin-4(3H)-one], for which the negative logarithm of the IC50 (pIC50) is 6.31.
